According to patent US11426417B2, “Neuroactive steroid formulations and methods of treating CNS disorders” (Sage Therapeutics, Inc., priority 2012, dated 2022):

Key:
[1] = test system: PTZ-treated C57BL6/J mice; assay: PTZ (pentylenetetrazol) seizure model, prevention of status epilepticus; type: in vivo; details: 3, 10, 30 mg/kg IP in 15% β-Cyclodextrin; PTZ 85 mg/kg IP; relative to vehicle-treated control
Experimental: FIG. 2A is a graph depicting the seizure rank in PZT treated C57BL6/J mice intraperitoneally administered 3, 10, 30 mg/kg allopregnanolone in 15% β-Cyclodextrin. FIG. 2B is graph depicting the latency to death period in PZT treated C57BL65 mice intraperitoneally administered 3, 10, 30 mg/kg allopregnanolone in 15% β-Cyclodextrin.
(§1) Plasma levels of three animals in each Allopregnanolone treatment group were collected randomly at completion of study and analyzed by LC-MS/MS. Bioanalytical measures are indicated in ng/mL (FIG. 2A). Data are presented as mean+/−SEM. *P<0.05 indicate a statistically significant difference relative to vehicle control by Fisher's PLSD. Valproate 400 mg/kg was used as a positive control in the study.

Fmr1 KO mice = assay: Audiogenic seizure (AGS) status epilepticus rescue in Fmr1 knockout mice; type: in vivo; details: 3, 10, 30 mg/kg IP in 30% b-Cyclodextrin; relative to vehicle treated control
Experimental: FIG. 1A is a bar graph depicting the percent seizure in fmr1 KO mice intraperitoneally administered 3, 10, 30 mg/kg allopregnanolone in 30% β-Cyclodextrin. FIG. 1B is a bar graph depicting the percent survival in fmr1 KO mice intraperitoneally administered 3, 10, 30 mg/kg allopregnanolone in 30% β-Cyclodextrin.
as §1, with “six” for “three”, “1A).” for “2A).”, “MPEP 30” for “Valproate 400”

[2] = Plasma and brain exposure by LC/MS-MS after single IM or IV dose; details: 30% CAPTISOL, SD rats
Experimental: FIG. 4A depicts the plasma exposure profiles of allopregnanolone measured by LC/MS-MS after single intramuscular (10 mg/kg) or intravenous (5 mg/kg) allopregnanolone dose in 30% CAPTISOL® in SD rats. FIG. 4B depicts the brain exposure profiles of allopregnanolone measured by LC/MS-MS after single intramuscular (10 mg/kg) or intravenous (5 mg/kg) allopregnanolone dose in 30% CAPTISOL® in SD rats.
The plasma and brain exposure profiles of Allopregnanolone were measured by LC/MS-MS after single intramuscular (IM) (10 mg/kg) or intravenous (IV) (5 mg/kg) dose in 30% CAPTISOL® in SD rats. […] N=2/time point. Error bars, SEM (FIGS. 4A and 4B).

[3] = test system: penetrating ballistic brain injury rodent model; assay: Penetrating ballistic brain injury rodent model of traumatic brain injury; type: in vivo; details: in 6% CAPTISOL; low (2.5 then 1.25 mg/kg/hr) and high (5.0 then 2.50 mg/kg/hr) dose groups, 5 day infusion
Source text: FIG. 5A depicts the latency to fall period (seconds) in a penetrating ballistic brain injury rodent model of traumatic brain injury in both the low and high dose groups progesterone in 6% CAPTISOL®. FIG. 5B depicts the mean motor score in a penetrating ballistic brain injury rodent model of traumatic brain injury in both the low and high dose groups progesterone in 6% CAPTISOL®.
Progesterone in 6% CAPTISOL® rescued motor impairment in a penetrating ballistic brain injury rodent model of traumatic brain injury in both the low and high dose groups (FIG. 5A and FIG. 5B). Progesterone was administered via a bolus loading dose followed by a 5 day continuous infusion where progesterone was tapered over the last 24 hours every 8 hrs by 25%. The low dose group received 2.5 mg/kg/hr for a 1 hr bolus infusion followed by a maintenance dose of 1.25 mg/kg/hr over 5 days with the last 24 hours being a taper. The high dose group received 5.0 mg/kg/hr for a 1 hr bolus infusion followed by a maintenance dose of 2.50 mg/kg/hr over 5 days with the last 24 hours being a taper.

For CC(=O)[C@H]1CC[C@H]2[C@@H]3CC[C@H]4C[C@H](O)CC[C@]4(C)[C@H]3CC[C@]12C [Allopregnanolone, 3 alpha-hydroxy-5 alpha-pregnan-20-one], the “Latency to Death” value [1] was “increase”, the Seizure rank [1] was “significant decrease” and the “Percent Seizure” value (Fmr1 KO mice) was “significant decrease”. For the same compound, the “Percent Survival” value (Fmr1 KO mice) was “increase”, the “exposure in plasma, IM (10 mg/kg) relative to IV (5 mg/kg) dose” value ([2]; 0.5-2 hr) was 671-916% and the “exposure in brain, IM (10 mg/kg) relative to IV (5 mg/kg) dose” value ([2]; 1 hr) was 506%.

For CC(=O)[C@H]1CC[C@H]2[C@@H]3CCC4=CC(=O)CC[C@]4(C)[C@H]3CC[C@]12C [Progesterone, pregn-4-ene-3,20-dione], the “motor impairment (latency to fall, mean motor score)” value [3] was “rescued”.
